For one test, the system named is C. albicans lipids. Briefly: Incorporation of label into total cellular lipids. It counts as cell-based. Conditions: 1 hr, 30° C. The method, then: (§1) Cells were incubated with the indicated [^3 H]fatty acid (specific activity=30 Ci/mmol, 100 μCi/ml media) for 1 h at 30° C. After the organisms were pelleted and washed, spheroplasts were prepared and total lipids extracted. Tests were done on two separate occasions. The incorporation of label from each of the oxatetradecanoic acid analogs and from palmitate into total cellular lipids is expressed as a percentage of the total amount of label incorporated from [^3 H]myristate.
(§2) Analysis of the incorporation of exogenous fatty acids into cellular phospholipids and neutral lipids--Five ml cultures were labeled with each of the 5 tritiated fatty acids or with [9,10(n)^3 H]palmitate (30 Ci/mmol) at 30° C. for 60 min (S. cerevisiae and C. albicans) or for 75 min (C. neoformans) as described in the preceding paragraph. S. cerevisiae and C. albicans cells were then pelleted by centrifugation at 4000×g for 5 min. and washed first in water followed by a wash with 1M sorbitol. […]
(§3) Dried lipids were resuspended in 500 μl CHCl3 :MeOH(1:1). A 2 μl aliquot was counted in a scintillation counter to determine the extent of incorporation of label into cellular lipids. […]

In the next test the test system is C. neoformans lipids. Briefly: Incorporation of label into total cellular lipids. It counts as cell-based. Conditions: 1 hr, 30° C. The method, then: as §1, §2, §3
For test [1], the system named is S. cerevisiae N-myristoylproteins. Briefly: Metabolic labeling of cellular N-myristoylproteins with tritiated fatty acids. To be noted: tritiated analog, 1 h, 30° C. It counts as cell-based. The method, then: (§4) Cells were labeled for 1 h with fatty acids of equal specific activity. Total cellular proteins were reduced, denatured and subjected to SDS-PAGE. Gels were treated overnight with 1 N hydrocylamine (pH 10) at room temperature followed by EN^3 HANCE. Fluorography was performed at -80° C. The exposure time for all gels was identical (2 weeks) as was the total amount of cellular protein added to each lane (100 μg).
(§5) Analysis of the incorporation of exogenous fatty acids into cellular proteins--Cultures of S. cerevisiae YM2061, C. albicans B311, and C. neoformans L210425 were grown overnight at 30° C. in YPD or SAB broth. In the morning, C. albicans and C. neoformans were diluted to an A600 =0.6. All cultures were subsequently shaken at 30° C. until they achieved an A600 =1.2. A 5 ml aliquot of each culture was then incubated at 30° C. with 100 μCi/ml of either [9,10(n)^3 H]myristate (NEN Research Products, Dupont, Boston, Mass.); [6,7(n)^3 H]4-oxatetradecanoate; [9,10(n)^3 H]6-oxatetradecanoate;[9,10(n)^3 H]11-oxatetradecanoate; or [10,11(n)^3 H]13-oxatetradecanoate (the final specific activity of all tritiated fatty acids=30 Ci/mmol, their final concentration=3.3 μM). The cultures were then chilled on ice for 5 min and the cells harvested by centrifugation at 4000×g for 5 min. The pellet was washed by gentle vortexing in 1 ml of phosphate buffered saline (PBS, maintained at 4° C.). The yeast cells were then pelleted by centrifugation (as above) and broken open by vortexing with 500 μm glass beads in a 200 μl solution containing 240 mM Tris-HCl, pH 6.8, 2% SDS, 0.4% β-mercaptoethanol, 0.002% bromophenol blue, and 10% glycerol. The solution was then boiled for 5 min and cellular debris was removed by centrifugation at 12,000×g for 10 min. One hundred μg [Lowry et al., J. Biol. Chem. 193, 265-275 (1951)] of lysate protein from each sample was subjected to denaturation, reduction and electrophoresis through 12% polyacrylamide gels containing 0.1% SDS [Laemmli, Nature 227, 680-685 (1970)]. Duplicate gels were incubated overnight with 1M Tris, pH 7.4, or 1N hydroxylamine, pH 10. Fluorography was performed by treating gels with EN^3 HANCE (NEN Research Products, Dupont) and, following drying, exposing them to Kodak XAR film at -80° C.

The subject of test [2] is C. neoformans N-myristoylproteins. The description is as above. To be noted: tritiated analog, 1 h, 30° C. It counts as cell-based. The procedure: as §4, §5
Test [3] deals with C. albicans N-myristoylproteins. Described as above. It counts as cell-based. To be noted: tritiated analog, 1 h, 30° C. The procedure: as §4, §5
A further test has as its system HIV-1. To be noted: acutely infected human T lymphocyte cell line; cited from earlier work.

Turning to `CCCCCCCCCCOCCC(=O)O` [O4, 4-oxatetradecanoic acid], the “label incorporated into C. albicans lipids, of the amount observed with [3H]myristate” value in the test with C. albicans lipids is recorded as 27-28%. Also, the “label incorporated into C. neoformans lipids, of the amount observed with [3H]myristate” value in the test on C. neoformans lipids is on record as 27-28%. Further, in test [1], the “incorporation into the 55 kDa Gpal polypeptide” value was “is incorporated”, the “labeling of S. cerevisiae N-myristoylproteins versus [3H]myristate” value was “more intense labeling” and the “labeling of the 20 kDa Arfs” value is “comparable intensity”. Besides, the “labeling of C. neoformans N-myristoylproteins versus [3H]myristate” value in test [2] is given as “comparable labeling”. In addition, in test [3], the “labeling of C. albicans N-myristoylproteins versus [3H]myristate” value is “more intense labeling”. In addition, the HIV-1 replication result with HIV-1 was “inhibits HIV-1 replication”.

The values above are taken from patent US5236955A, “Anti-fungal agent” (Washington University, priority 1992, dated 1993).
